In experiment [1] the test system is unpredictable long-term stimulus model. The experiment can be described thus: Open field activity experiment, unpredictable long-term stimulus model (Experiment 8). The class given is in vivo, rat. Conditions: 2 mg/kg/d into the stomach, 24 days; within 3 minutes. An excerpt:
7.5.1 Open field activity experiment: The open field activity box (1 m×1 m×0.4 m) is constructed by the light blue plywood and the aluminum alloy frame. The box bottom is separated into 25 grids (20 cm×20 cm for each grid), the circumference is the peripheral grids (16 grids), and others are the central grids (9 grids). The rat is placed in the center of the central grids, and the rat's cross-grid number (the number of crossing into the neighboring gird more than 3 claws) and rat's standing number (two forelimbs leaving the ground for more than 1 cm) are calculated/observed within 3 minutes.
(§1) Unpredictable long-term stimulus model: Health Wistar male rats, secondary, 240˜270 g of body weight, are purchased from Beijing Vital River Experimental Animal Technology Ltd. Co. (The quality certificate number: SOCK (JING) 2002-2003).
The above pharmaceuticals are prepared with 0.5% of sodium carboxymethylcellulose (CMC-Na) for feeding into the stomach. Benzylpenicillin sodium for injection is the product of North China Pharmaceutical Huasheng Co. Ltd. (Lot: S0511204), and norepinephrine (NE) and 5-hydrotryptamine (5-HT) standards are the products of Sigma Co. Other reagents are all marketed. […]
(§2) 8.6 Statistic calculation: The experimental data are represented as […], and the experimental result is calculated as ANOVA by SPSS 11.5 statistic software.

Experiment [2] concerns ICR mice. The experiment can be described thus: Resetpine-induced mouse body temperature decrease experiment (Experiment 4). The class given is in vivo. An excerpt: 4.1 Experimental animals: ICR mice, male, 22.0±2 g of body weight, secondary, are provided by the Experimental Animal Science Department of Capital Medical University, Beijing.
4.2 Experiment pharmaceuticals: The pharmaceutical of Embodiment 2 is provided by Beijing Wonner Biotech. Ltd. Co., Paroxetine (Paxil) is the product of Zhong Mei Tianjin Smith Kline pharmaceuticals Co. Ltd., and Resetpine is the product of Guangdong BangMin Pharmaceutical Co., Ltd.
4.4 Dose designs: 1. High dose of Embodiment 2 (80 mg/kg/d); 2. middle dose of Embodiment 2 (40 mg/kg/d); and 3. low dose of Embodiment 2 (20 mg/kg/d).
4.5.1 Group division and administration of drug: The mice are grouped randomly, and 10 mice are in each group. 1. High dose of Embodiment 2 (80 mg/kg, P.O., administered for 7 days); 2. middle dose of Embodiment 2 (40 mg/kg, P.O., administered for 7 days); 3. low dose of Embodiment 2 (20 mg/kg, P.O., administered for 7 days); 4.
4.5.2 Experimental method: After 1 hour of the last administration of drug on the eighth day, the mouse's anal temperature is determined. […] After 4 hours of injecting Resetpine, the mouse's anal temperature is determined once again. […]
4.5.3 Statistic calculation: The experimental data are represented as X±SD, and the experimental result is calculated as ANOVA by SPSS 11.5 statistic software.

Experiment [3] deals with ICR mice. Nature of the experiment: Mouse tail-hanging experiment (Experiment 9). In kind it is in vivo. How it is done: 9.1 Experiment pharmaceuticals: The pharmaceutical of Embodiment 5 is provided by Beijing Wonner Biotech. […] Above-mentioned pharmaceuticals are prepared with physiological saline for feeding into the stomach. 9.2 Experimental animals: ICR mice, male, 20.0±1 g of body weight, secondary, are provided by the Experimental Animal Science Department of Capital Medical University, Beijing. The quality certificate number of mice is SOCK (DING) 2006-2008. […] The pharmaceuticals are fed into mouse's stomach once every day. After 1 hour of the last administration of drug on the eighth day, the mouse's tail (1 cm to the tail end) is taped on the horizontal support in an opened box, and the mouse represents the reversed hung status. The mouse head is away from the bottom of the opened box for about 10 cm, and the mouse is hung up for 6 minutes. The time of non-movement of the mouse for the last 5 minutes is recorded. 9.5 Statistic calculation: The experimental data are represented as X±SD, and the experimental result is calculated as one-way ANOVA by SPSS 11.5 statistic software.

Experiment [4] deals with NE and 5-HT contents in the rat cerebral cortex. Nature of the experiment: HPLC-electrochemical test of NE and 5-HT contents in the rat cerebral cortex, unpredictable long-term stimulus model (Experiment 8). Conditions: 2 mg/kg/d into the stomach, 24 days. In kind it is in vivo.
Experimental: 8.4.1 Group division and administration of drug: The rats are grouped randomly into 6 groups. […] The test drugs and the positive control drug are prepared with 0.5% of CMC-Na for feeding into the stomach once every day.
Unpredictable long-term stimulus model: The rats in the control group eat and drink normally, and there is no stimulus performed. […]
8.5.6 HPLC-electrochemical test: The amounts of norepinephrine and 5-hydrotryptamine in the rat cerebral cortex are measured.
8.6 Statistic calculation: The experimental data are represented as 7±SD, and the experimental result is calculated as ANOVA by SPSS 11.5 statistic software.
Experiment [5] deals with unpredictable long-term stimulus model. The experiment can be described thus: Volume test of drinking sucrose, unpredictable long-term stimulus model (Experiment 8). In kind it is in vivo, rat. Conditions: 2 mg/kg/d into the stomach, 24 days; 1% sucrose for 1 hour. Here is the method:
as §1
The above pharmaceuticals are prepared with 0.5% of sodium carboxymethylcellulose (CMC-Na) for feeding into the stomach. Benzylpenicillin sodium for injection is the product of North China Pharmaceutical Huasheng Co. Ltd. (Lot: S0511204), and norepinephrine (NE) and 5-hydrotryptamine (5-HT) standards are the products of Sigma Co. Other reagents are all marketed.
8.4.1 Group division and administration of drug: The rats are grouped randomly into 6 groups. 1. False therapy group; 2. model group (control); 3. high dose of Embodiment 4 (60 mg/kg/d); 4. middle dose of Embodiment 4 (30 mg/kg/d); 5. low dose of Embodiment 4 (15 mg/kg/d); and 6. […]
8.5.5 Volume test of drinking sucrose: The sucrose-intake volume of the rats are compared. […] The drinking volumes are determined before the stimulus and after 3 weeks of the stimulus. […] The differences between the bottle weight before and after the rat drinking sucrose for 1 hour are measured and recorded, and the sucrose-drinking volume for each time is calculated. […]
as §2

Take `Fc1ccc([C@@H]2CCNC[C@H]2COc2ccc3c(c2)OCO3)cc1` [Paroxetine]: in experiment [1], the “Horizontal movement (cross-grid number)” value is listed as 61.85 ± 21.68 and the “Vertical movement (standing number)” value is reported as 14.69 ± 4.2. Further, the Decreased temperature in experiment [2] (3 mg/kg P.O. 7 days, 4 h after Resetpine 2 mg/kg i.p.) is 2.38 ± 0.69 °C. In addition, the “Effect on reduced body temperature induced by Resetpine (in words)” value in experiment [2] (middle dose of Embodiment 2, Paroxetine) is “decrease the reduced body temperature induced by Resetpine”. The compound further displayed a Time of non-movement in experiment [3] (3 mg/kg/d into the stomach, 1 h after last dose on the eighth day, last 5 of 6 min) of 53.27 ± 20.02 s. Moreover, the “Effect on accumulative time of non-movement, tail-hanging (in words)” value in experiment [3] (high, middle and low doses of Embodiment 5, Paroxetine) was “obviously decrease the accumulative time of non-movement”. Also, the NE in experiment [4] was 220.5419 ± 38.32 nmol/L brain tissue extract. In experiment [5], the Sucrose-intake volume is 26.29 ± 4.87 g.
